Values of other authors as cited in patent publication US20070275062A1, “Controlled release oxycodone compositions” (priority 1993, published 2007).
Read-outs that look alike come from different tables or passages of the source.

System: pain
Conditions: for dose-response slopes: Beaver, et al.

## COc1ccc2c3c1O[C@H]1C(=O)CC[C@@]4(O)[C@@H](C2)N(C)CC[C@]314 [oxycodone]
In comparison with other oral and parenteral opioids
  parallelism of the dose-response curves: no substantial deviation from parallelism
Oral as compared to parenteral oxycodone
  dose-response slopes: comparable dose-response slopes
Parenteral oxycodone as compared to parenteral morphine
  dose-response slopes: comparable dose-response slopes
